Experiments:
[1] = Scanning electron micrographs of the particles formed in the Example; assay type: physicochemical; conditions: particles precipitated from acetone into SC-CO2 at 40° C., 80 bar with alpha D glucose penta acetate as growth retardant; FIGS. 4A and 4B; substantially uniform in size, circular in shape
Source text: FIGS. 4A and 4B are scanning electron micrographs of the acetaminophen particles formed in the Example at two magnifications. […] Some minimal particle agglomeration or bridging is apparent.

[2] = Particle size distribution by laser light scattering; assay type: physicochemical; conditions: FIG. 5, standard deviation 1.87 microns, particles precipitated in SC-CO2 at 40° C., 80 bar with alpha D glucose penta acetate
Description: The mean diameter of the acetaminophen particles formed in the Example was measured using the conventional laser light scattering technique, which is known in the art. FIG. 5 is a graph showing the size distribution of particles. The mean volume diameter of the particles was 4.08 microns and the standard deviation was 1.87 microns.

## CC(=O)Nc1ccc(O)cc1 [acetaminophen]
[1]
  particle size (scanning electron micrographs): 1-2 microns
[2]
  mean volume diameter of the particles: 4.08 microns
